Results reported in patent US20080293758A1, “Combination of a Steroid Sulfatase Inhibitor and an Ascomycin” (Novartis AG, priority 2005, published 2008).
“And” between values parts separate entries of the source, which are not always exact repeats. Equal values may be shown once.

Experiments:
[1] = molecular target: T1, steroid sulfatase in human cadaver skin homogenate (Homo sapiens, UniProt P08842); assay: Assay Using Human Skin Homogenate (DHEAS cleavage); type: biochemical; conditions: 18 hrs at 37° C.
T1 construct: Frozen specimens of human cadaver skin (about 100 mg per sample) are minced into small pieces; from tissue; host or cells: human cadaver skin, minced and suspended in Tris buffer with 0.1% Triton X-100
T1 sequence (P08842 22-583): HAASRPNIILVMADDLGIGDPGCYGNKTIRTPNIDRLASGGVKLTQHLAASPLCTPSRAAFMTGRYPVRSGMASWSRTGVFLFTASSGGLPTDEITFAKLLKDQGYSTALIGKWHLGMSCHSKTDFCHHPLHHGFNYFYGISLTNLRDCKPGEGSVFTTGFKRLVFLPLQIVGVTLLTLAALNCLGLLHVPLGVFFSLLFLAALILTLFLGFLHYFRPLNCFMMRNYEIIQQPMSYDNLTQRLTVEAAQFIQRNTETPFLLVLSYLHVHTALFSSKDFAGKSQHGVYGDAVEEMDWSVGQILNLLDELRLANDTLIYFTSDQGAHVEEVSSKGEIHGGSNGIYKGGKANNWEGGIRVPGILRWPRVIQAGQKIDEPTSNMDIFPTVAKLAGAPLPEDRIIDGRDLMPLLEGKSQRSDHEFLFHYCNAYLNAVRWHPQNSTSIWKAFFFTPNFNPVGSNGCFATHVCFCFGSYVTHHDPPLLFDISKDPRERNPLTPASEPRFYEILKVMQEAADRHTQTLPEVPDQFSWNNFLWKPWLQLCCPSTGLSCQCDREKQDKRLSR
Description: Frozen specimens of human cadaver skin (about 100 mg per sample) are minced into small pieces (about 1×1 mm) using sharp scissors. The pieces obtained are suspended in ten volumes (w/w) of buffer (20 mM Tris-HCl, pH 7.5), containing 0.1% Triton X-100. Test compounds (e.g. compounds of the present invention) are added at graded concentrations from stock solutions in ethanol or DMSO. Second, DHEAS as the substrate is added ([…] [^3H]DHEAS, specific activity: about 60 Ci/mmol, and 20 μM unlabeled DHEAS). Samples are incubated for 18 hrs at 37° C. At the end of the incubation period, 50 μl of 1 M Tris, pH 10.4 and 3 ml of toluene are added. A 1-ml aliquot of the organic phase is removed and subjected to liquid scintillation counting. The determined dpm-values in the aliquots are converted to nmol of DHEA cleaved per g of skin per hour.

[2] = molecular target: T2, purified human steroid sulfatase (Homo sapiens, UniProt P08842); assay: Assay of Human Steroid Sulfatase (4-methylumbelliferyl sulfate cleavage); type: biochemical; conditions: reference compound, determined in parallel
T2 construct: Human placenta is obtained freshly after delivery and stripped of membranes and connective tissues; from tissue; host or cells: human placenta (microsomes, Triton X-100 extract, hydroxy apatite / concanavalin A sepharose / blue sepharose chromatography)
T2 sequence (P08842 22-583): T1 sequence (P08842 22-583)
Description: For storage, the material is frozen at −70° C.
The activity is recovered in the flow-through.
Plates are incubated at 37° C. for 1 hour.
Relative IC50 values are defined as follows: […]

[3] = test system: irritant contact dermatitis elicited with tetradecanoylphorbol-13-acetate (TPA) on mouse ears; assay: Anti-Inflammatory Test System (TPA-elicited irritant contact dermatitis, auricular weights); type: in vivo, mice, strain NMRI; conditions: topical 10 μl, 6 hours after TPA
Description: The test sites on the inner surface of the right external ears of mice, e.g. strain NMRI, (8 per group) are treated with 10 μl of the dissolved test compound or with the vehicle (a 4:4:2 mixture of ethanol/acetone/dimethylacetamide) alone. The test compounds are applied alone or in combination at concentrations shown in the TEST RESULT TABLE. Thirty minutes after the treatment irritant contact dermatitis is elicitated at the treated auricular sites with 10 μl 0.005% tetradecanoylphorbol-13-acetate (TPA).
Skin inflammation is assessed 6 hours after the elicitation by determination of the auricular weights, as a measure of inflammatory swelling. The animals are killed and both ears are cut off and weighed. Inhibitory activity of test compounds is calculated from differences in right and left ears (internal controls) in mice treated with the test compounds compared with animals treated with the vehicle only. Results obtained are as set out in TEST RESULT TABLE below:
In the TEST RESULT TABLE the concentrations of the compounds (in bold) used are indicated in micromol/litre. The values given in the TEST RESULT TABLE (in regular letters) are the inhibition in % determined according to the ANTI-INFLAMMATORY TEST SYSTEM used.

Compound	IC50 [1]	also measured
CC(C)(C)OC(=O)N1CC2CCCCC(C1)C2C(=O)NS(=O)(=O)c1cc(C(F)(F)F)cc(C(F)(F)F)c1 (single isomer, unassigned) [Example 217, 10-(3,5-bis-trifluoromethyl-benzenesulfonylaminocarbonyl)-8-aza-bicyclo[4.3.1]decane-8-carboxylic acid tert-butyl ester]	0.03 to 0.27 µM and 0.27 µM	
O=C(NS(=O)(=O)c1cc(C(F)(F)F)cc(C(F)(F)F)c1)C1C2CCCCC1CN(C(=O)CC1CCCC1)C2 (centres unmarked) [Example 208]	0.03 to 0.27 µM	
CC(C)(C)OC(=O)N1CC2CCCCC(C1)C2C(=O)NS(=O)(=O)c1cc(C(F)(F)F)cc(C(F)(F)F)c1 (centres unmarked) [Example 218]	0.03 to 0.27 µM and 0.27 µM	
NC(=O)c1ccc(C(F)(F)F)cc1N1CCC(CC(=O)NS(=O)(=O)c2cccc(Cl)c2Cl)CC1 [Example 248]	0.03 to 0.27 µM	
NC(=O)c1ccc(C(F)(F)F)cc1N1CCC(CC(=O)NS(=O)(=O)c2cc(Cl)cc(Cl)c2)CC1 [Example 249]	0.03 to 0.27 µM	
Cc1c(Cl)cccc1S(=O)(=O)NC(=O)CC1CCN(c2cc(C(F)(F)F)ccc2C(N)=O)CC1 [Example 251]	0.03 to 0.27 µM	
NC(=O)c1ccc(C(F)(F)F)cc1N1CCC(CS(=O)(=O)NC(=O)c2cc(C(F)(F)F)cc(C(F)(F)F)c2)CC1 [Example 379]	0.03 to 0.27 µM	melting point: 268 to 273 °C
C[C@]12CC[C@@H]3c4ccc(OS(N)(=O)=O)cc4CC[C@H]3[C@@H]1CCC2=O [estrone sulfamate, estrone 3-O-sulfamate]		IC50 [2]: ~0.06 µM
CC[C@@H]1/C=C(\C)C[C@H](C)C[C@H](OC)[C@H]2O[C@@](O)(C(=O)C(=O)N3CCCC[C@H]3C(=O)O[C@H](/C(C)=C/[C@@H]3CC[C@H](Cl)[C@H](OC)C3)[C@H](C)[C@@H](O)CC1=O)[C@H](C)C[C@@H]2OC [pimecrolimus, {[1E-(1R,3R,4S)]1R,9S,12S,13R,14S,17R,18E,21S,23S,24R,25S,27R}-12-[2-(4-chloro-3-methoxycyclohexyl)-1-methylvinyl]-17-ethyl-1,14-dihydroxy-23,25-dimethoxy-13,19,21,27-tetramethyl-11,28,dioxa-4-azatricyclo[22.3.1.0(4,9)]octacos-18-ene-2,3,10,16-tetraone]		inhibition in % ([3]; pimecrolimus 0.1, example 217 or 218 0 micromol/litre): 15%; inhibition in % ([3]; pimecrolimus 0.3, example 217 or 218 0 micromol/litre): 29%; inhibition in % ([3]; pimecrolimus 1.0, example 217 or 218 0 micromol/litre): 30%; inhibition in % ([3]; pimecrolimus 3.0, example 217 or 218 0 micromol/litre): 31%; inhibition in % ([3]; pimecrolimus 10, example 217 or 218 0 micromol/litre): 42%
